Test results published in patent US5298652A, “N-substituted glycines, inhibitors of phospholipase A2” (Hoffmann-La Roche Inc., priority 1992, dated 1994).
Each block holds one compound with its values, some of them ahead of it.

Tests used:
[1] = tested on: croton oil-induced mouse ear edema; test: Croton oil mouse ear edema test; assay type: in vivo, male CD-1 mice; settings: 1 mg topical, coapplied with croton oil; ear punch weight at 6 hours
Method: Croton Oil Mouse Ear Edema Test
The croton oil-induced mouse ear edema test, a model of irritant-induced contact dermatitis, has been used for evaluation of the PLA2 inhibitors by the topical route of administration. This test was carried out as described in the following references: […]
Twenty five μl of a 1% croton oil solution [dissolved in a mixture of pyridine/water/diethyl ether at a ratio of 5/20/75 (croton oil vehicle)] are applied to the outer side of the right ear of 3-4 week old male CD-1 mice (8 animals per group). The test compounds are dissolved directly in the 1% croton oil solution at various concentrations and coapplied. Control animals receive 25 μl of croton oil vehicle on the right ear. Biopsy punches are removed at 6 hours from the right ear of the animals using a 6 mm skin trephine (Roboz, Washington, D.C.) and the wet weight of the ear punches is determined. The weight of the biopsy punches is a measure of ear inflammation, primarily edema. The data are expressed as percent inhibition relative to control groups.
Statistical analysis of the mean edema values of the control versus the treated groups is performed using Student's t-test. The significance of changes from mean value for vehicle-treated animals is as follows (*p<0.05, **p<0.01, ***p<0.005, ns/not significant).

[2] = tested on: carrageenan-induced paw edema; test: Rat carrageenan paw edema; assay type: in vivo, Lewis rats; settings: for % Inhib of Carrageenan Paw Edema 2 hr 30 mg/kg ip: 1 hr prior to carrageenan
Method: Rat Carrageenan Paw Edema
Representative compounds of the invention were tested in rat carrageenan-induced paw edema to determine their ability to inhibit this acute inflammatory response. Test compounds were administered intraperitoneally or orally to groups of seven Lewis rats (~200 gm) 1 hr prior to carrageenan administration. The test compounds were dissolved in dimethyl sulfoxide for intraperitoneal administration and dissolved or suspended in Labrafil […] for oral administration. At 0 hour, 0.1 mL of 1% carrageenan dissolved in pyrogen free […] was injected subplanetary into the right hind paw to elicit the inflammatory response. The volume (in mL) of the right hind paw was measured by immersion of the paw to the level of the lateral malleolus in an aqueous plethysmometer immediately prior to the injection of carrageenan and then at 1, 2 and 4 hr after carrageenan injection. The paw edema was calculated by subtracting the zero time reading from the readings taken after injection. The percent change of the edema volume from the vehicle treated control was calculated to determine the activity of the test compound. Statistical analysis of the mean paw edema values of the control versus the treated groups was performed using Student's t-test.

[3] = target: T1, HSF-PLA2 (extracellular PLA2 obtained from human synovial fluid) (Homo sapiens, UniProt P14555); test: Assay for inhibition of HSF-PLA2 in vitro; assay type: biochemical; settings: read-out: % Inhib of HSF-PLA2; for inhibition at 5 µM: 5 μM test compound; for inhibition at 10 µM: 10 μM test compound
T1 construct: extracellular enzyme obtained from human synovial fluid; from tissue; host or cells: human synovial fluid (pooled)
T1 sequence (P14555 21-144): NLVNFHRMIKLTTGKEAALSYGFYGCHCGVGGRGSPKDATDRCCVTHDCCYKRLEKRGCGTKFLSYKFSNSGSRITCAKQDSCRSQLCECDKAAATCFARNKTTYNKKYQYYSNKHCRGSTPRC
Method: Assay for Inhibition of HSF-PLA2 In Vitro
The PLA2 used in this test is the extracellular enzyme obtained from human synovial fluid (HSF-PLA2).
The assay for HSF-PLA2 activity was a modification of the described method [Franson R., Dobrow R., Weiss, J., Elsbach P., and Weglick W. B., J. Lipid Res., 19, 18-23 (1978)] which was conducted using [1-^14 C]-oleate-labelled E. coli substrate in excess at a final concentration of 20,000 dpm/ml. This was equivalent to 18.2 mM of cell membrane phospholipid phosphorus and 2×10^9 autoclaved E. coli/ml. The optimal conditions which were developed for the assay of HSF-PLA2 inhibitors are summarized as follows. A total volume of 0.5 ml of reaction mixture typically had the following final composition: substrate (20,000 dpm/ml); enzyme (0.1% HSF, v/v); 2 mM CaCl2; 150 mM Na^+; 50 mM sodium HEPES buffer, pH 7.3; and 1% dimethyl sulfoxide (DMSO, used to solubilize test inhibitors) in the presence or absence of inhibitor. The reaction was initiated by the addition of HSF-PLA2 and duplicate samples of the mixture were incubated in 13×100 mm glass tubes with shaking for 30 minutes at 37° C. The reaction was terminated by the addition of 2.5 ml of chloroform-methanol (1 to 1.5, v/v). The extraction of lipids from the stopped reaction mixture was conducted by the further additions of 0.5 ml of chloroform and 1 ml of water with mixing. After centrifuging, the lower chloroform phase was transferred to smaller glass tubes and the solvent was evaporated to dryness with a nitrogen stream. The extracted lipid residue was redissolved in […] of a solution containing carrier oleic acid (0.2 mg/ml) in chloroform-methanol [9 to 1, v/v]). The whole lipid extract was applied to a preactivated (30 minutes at 110° C.) silica gel-impregnated glass fiber thin layer chromatography sheet (ITLC type SG sheet from Gelman Sciences Inc., Ann Arbor, Mich.) using hexane-acetic acid (100 to 1, v/v) as the developing solvent. This TLC system rapidly (6 minutes) resolved the enzymatically released product, ^14 C-oleic acid, from the unreacted ^14 C-phospholipid substrate. The unsaturated lipids were located on the chromatogram by a brief exposure to iodine vapor. The oleic acid zone (Rf value 0.95) and phospholipid zone (origin) were cut out, chopped into small pieces, shaken with 2 ml of ethanol-water (80 to 20, v/v) and 15 ml of Aquasol and counted for radio-activity. A control incubation of substrate in the absence of HSF-PLA2 was performed in each experiment. The PLA2 activity of the human synovial fluid was corrected for this small control value. […] The specific activity of PLA2 in the pooled human synovial fluid under the optimal assay conditions was 49.2 nmoles [1-^14 C]-oleic aid released hour^-1 mg^-1. The IC50 (μM concentration of test compound that produces 50% inhibition of PLA2 activity) was determined for each test compound.

[4] = tested on: adjuvant arthritis induced by Freunds complete adjuvant; settings: dose 30 mg/kp ip
[5] = tested on: TPA-induced mouse ear edema; test: TPA induced mouse ear edema test; assay type: in vivo, male CD-1 mice; settings: for % Inhib of TPA Mouse Ear Edema (1 mg) / % Inhib of Myeloperoxidase Mouse Ear Edema (1 mg): 1 mg topical
Method: TPA Induced Mouse Ear Edema Test
The TPA-induced mouse ear edema test, a model of irritant-induced contact dermatitis is described in the following reference: J. M. Young, B. M. Wagner and D. A. Spires, J. Invest. Dermatology 80, 48-52 (1983).
For this test, 10 μl of 12-O-tetradecanoylphorbol-13-acetate (TPA), dissolved in a vehicle of pyridine: water: diethylether (20:5:75), was applied to the outside of the right ear of 3-4 week old male CD-1 mice (8 animals per group). The test compounds were dissolved in the same vehicle and 10 μl was applied to the inside of the same ear 30 minutes prior to the application of TPA. Ear punches (6 mm) were removed at 6 hours after TPA application, weighed and assayed for myeloperoxidase (MPO) activity as described in the following reference: P. P. Bradley, D. A. Priebat, R. D. Christensen and G. Rothstein, J. Invest. Dermatology 78, 206-209 (1982). The wet weight of the ear biopsy punches is a measure of the ear edema and the level of MPO activity in the ear punches is an indicator of neutrophil infiltration. The data are expressed as percent inhibition in drug-treatedanimals relative to the control group. Table II sets forth the percentage inhibition of edema by representative compounds of the invention in this test. Table III sets forth the percentage inhibition of myeloperoxidase by representative compounds of the invention in this test.

[6] = 30 minutes prior to TPA, ear punch weight at 6 hours
[7] = MPO activity in ear punches 6 hours after TPA

SMILES: CCCCCCCCCCOc1cc(OCCCCCCCCCC)cc(C(=O)N(CC(=O)O)CC(=O)O)c1 [Example 11, N-(Carboxymethyl)-N-[3,5-bis(decyloxy)benzoyl]glycine]
- % Inhib of Croton Oil Mouse Ear Edema (1 mg) [1]: 70%
- % Inhib of Carrageenan Paw Edema 2 hr ([2]; 50 mg/kg): 50%
- inhibition at 6 µM ([3]; 6 μM test compound): 50%

SMILES: CCCCCCCCCCCCCCCCCCOc1cc(OCCOCCOCCOCC)cc(C(=O)N(CC(=O)O)CC(=O)O)c1 [Example 48, N-(carboxymethyl)-N-[3-[2-[2-(2-ethoxyethoxy)ethoxy]ethoxy]-(5-octadecyloxy)benzoyl]glycine]
- % Inhib of Croton Oil Mouse Ear Edema (1 mg) [1]: 19%
- % Inhib of Carrageenan Paw Edema 2 hr 30 mg/kg ip [2]: 76%
- inhibition at 5 µM [3]: 36%

SMILES: CCCCCCCCCCCCCC(=O)Nc1cc(NC(=O)CCCCCCCCCCCCC)cc(C(=O)N(CC(=O)O)CC(=O)O)c1 [Example 56, N-(Carboxymethyl)-N-[3,5-bis(1-oxotetradecylamino)benzoyl]glycine]
- % Inhib of Carrageenan Paw Edema 2 hr ([2]; 100 mg/kg po): 26%

SMILES: CCCCCCCCCCCCCCCCCCOc1ccc(O)c(C(=O)N(CC(=O)O)CC(=O)O)c1 [Example 62, N-(carboxymethyl)-N-[2-hydroxy-5-(octadecyloxy)benzoyl]glycine]
- % Inhib of Croton Oil Mouse Ear Edema (1 mg) [1]: 65%
- % Inhib of Carrageenan Paw Edema 2 hr 30 mg/kg ip [2]: 57%
- inhibition at 5.8 µM ([3]; 5.8 μM test compound): 50%
- Change in Paw Volume in ml, Treated [4]: -0.11 ± 0.06 mL

SMILES: CCCCCCCCCCOc1cc(OCCCCCCCCCC)cc(C(=O)C(=O)N(CC(=O)O)CC(=O)O)c1 [Example 73, N-(Carboxymethyl)-N-[[3,5-bis(decyloxy)phenyl]-1,2-dioxoethyl]glycine]
- % Inhib of Carrageenan Paw Edema 2 hr 30 mg/kg ip [2]: 56%
- inhibition at 5 µM [3]: 62%

- inhibition at 5 µM [3]: 42%
SMILES: CCCCCCCCCCCCCCCCCCOc1ccc(OCc2ccccc2)c(C(=O)N(CC(=O)O)CC(=O)O)c1 [Example 81, N-(Carboxymethyl)-N-[5-(octadecyloxy)-2-(phenylmethoxy)benzoyl]glycine]
- % Inhib of Croton Oil Mouse Ear Edema (1 mg) [1]: 74%
- % Inhib of TPA Mouse Ear Edema ([5]; 0.3 mg topical, 30 minutes prior to TPA, ear punch weight at 6 hours): 60%
- % Inhib of Myeloperoxidase Mouse Ear Edema ([5]; 0.3 mg topical, MPO activity in ear punches 6 hours after TPA): 75%

- inhibition at 10 µM [3]: 70%
SMILES: CCCCCCCCCCCCCCOc1ccc(OCc2ccccc2)c(C(=O)N(CC(=O)O)CC(=O)O)c1 [Example 86, N-(Carboxymethyl)-N-[5-(tetradecyloxy)-2-(phenylmethoxy)benzoyl]glycine]
- % Inhib of TPA Mouse Ear Edema (1 mg) [5, 6]: 47%
- % Inhib of Myeloperoxidase Mouse Ear Edema (1 mg) [5, 7]: 63%

- inhibition at 10 µM [3]: 70%
SMILES: CCCCCCCCCCOc1ccc(OCc2ccccc2)c(C(=O)N(CC(=O)O)CC(=O)O)c1 [Example 91, N-(Carboxymethyl)-N-[5-(decyloxy)-2-(phenylmethoxy)benzoyl]glycine]
- % Inhib of TPA Mouse Ear Edema (1 mg) [5, 6]: 59%
- % Inhib of Myeloperoxidase Mouse Ear Edema (1 mg) [5, 7]: 78%

- inhibition at 10 µM [3]: 71%
SMILES: CCCCCCCCCCCCCCCCCCOc1ccc(OCCCc2ccccc2)c(C(=O)N(CC(=O)O)CC(=O)O)c1 [Example 95, N-(Carboxymethyl)-N-[5-(octadecyloxy)-2-(3-phenylpropoxy)benzoyl]glycine]
- % Inhib of TPA Mouse Ear Edema (1 mg) [5, 6]: 55%

- inhibition at 10 µM [3]: 86%
SMILES: CCCCCCCCCCCCCCCCCCOc1ccc(OCCCOc2ccc(OCc3ccccc3)cc2)c(C(=O)N(CC(=O)O)CC(=O)O)c1 [Example 99, N-(Carboxymethyl)-N-[5-(octadecyloxy)-2-[3-[4-(phenylmethoxy)phenoxy]propoxy]benzoyl]glycine]
- % Inhib of TPA Mouse Ear Edema (1 mg) [5, 6]: 50%

- inhibition at 10 µM [3]: 77%
SMILES: CCCCCCCCCCCCCCCCCCOc1ccc(OCCCOc2ccc(O)cc2)c(C(=O)N(CC(=O)O)CC(=O)O)c1 [Example 100]
- % Inhib of TPA Mouse Ear Edema (1 mg) [5, 6]: 65%

- inhibition at 10 µM [3]: 38%
SMILES: O=C(O)CN(CC(=O)O)C(=O)c1cc(OCCCCCCOc2ccc(-c3ccccc3)cc2)ccc1OCc1ccccc1 [Example 105, N-[5-[[6-([1,1'-biphenyl]-4-yloxy)hexyl]oxy]-2-(phenylmethoxy)benzoyl]-N-(carboxymethyl)glycine]
- % Inhib of TPA Mouse Ear Edema (1 mg) [5, 6]: 67%

- inhibition at 10 µM [3]: 61%
SMILES: O=C(O)CN(CC(=O)O)C(=O)c1cc(OCCCCCCCCCCCCOc2ccccc2)ccc1OCc1ccccc1 [Example 110, N-(Carboxymethyl)-N-[5-[(12-phenoxydodecyl)oxy]-2-(phenylmethoxy)benzoyl]glycine]
- % Inhib of TPA Mouse Ear Edema (1 mg) [5, 6]: 57%

- inhibition at 10 µM [3]: 35%
SMILES: O=C(O)CN(CC(=O)O)C(=O)C(=O)c1ccc(OCCCCCCCCCCCCOc2ccccc2)cc1 [Example 114, N-(Carboxymethyl)-N-[1,2-dioxo-2-[4-[(12-phenoxydodecyl)oxy]phenyl]ethyl]glycine]
- % Inhib of TPA Mouse Ear Edema (1 mg) [5, 6]: 37%
